Data on five compounds can be found in US12280072B2, “Oligosaccharide compound for inhibiting intrinsic coagulation factor X-enzyme complex, and preparation method therefor and uses thereof” (Jiuzhitang Co., Ltd., priority 2017, dated 2025).

Like-named read-outs stand apart in the source and are kept apart here.

Assay type in all cases: biochemical
One assay deals with T1, FXa (Homo sapiens).
T1 construct: 8 μg/mL FXa solution; purchased
Kind of assay: AT-dependent Xa inhibitory activity assay. The procedure:
AT-dependent Xa inhibitory activity assay: Heparin […] kit was used for detection. To a 96-well plate, 30 μL of sample, control solution or Tris-HCl buffer (negative control) was added, then 30 μL of 1 IU/mL AT solution was added, mixed well and incubated at 37° C. for 1 min; and than 30 μL of 8 μg/mL FXa solution was added, mixed well and incubated at 37° C. for 1 min, then 30 μL of pre-warmed 1.25 mM Xa chromogenic substrate SXa-11 was added. OD405 was detected by a microplate reader.
(§1) Data processing: The average value of OD405 detected by the duplicated well was used as the detection value of the test sample and the reference of each concentration, and the slope of the linear fit between the detected value to the time value (the change rate of the absorbance value OD405/min) indicated enzymatic activity of coagulation factor. Taking the clotting factor activity of the negative control well as 100%, coagulation factor activity (percentage) in the presence of the test sample was calculated. The coagulation factor activity in the presence of the test sample was plotted against the concentration of the test sample, and fitted according to the following formula, to calculate the IC50 value: B=(IC50)^n/{(IC50)^n+[I]^n}
(§2) in the formula, B is the coagulation factor activity (percentage) in the presence of the test sample, [I] is the concentration of the test sample, IC50 is the half inhibitory concentration (concentration of the test sample required to inhibit 50% of the activity), and n is the Hill coefficient. • (4) Effect on surface activation and platelet activity: […]

The test system of assay [1] is human-controlled plasma. Nature of the assay: Anticoagulant activity assay: APTT clotting time. The procedure:
(§3) 8.2 Methods • (1) Preparation of sample solution: Oligosaccharide compounds A1˜A8, B1˜B11 and oligosaccharide mixtures C1, D1, D2 were all dissolved in Tris-HCl buffer and diluted to the desired series of solubility. • (2) Anticoagulant activity assay: 90 μL of human-controlled plasma was added to the sample or 10 μL of the control solution, and then the clotting time (APTT and PT) was detected by the MC-4000 coagulometer according to the method described in the APTT and PT kit instructions. • (3) Coagulation factor inhibitory activity analysis: […]

Another assay deals with T2, FIIa (Homo sapiens).
T2 construct: antithrombin (i.e., active coagulation factor IIa); purchased
Nature of the assay: AT-dependent IIa inhibitory activity assay. The procedure:
AT-dependent IIa inhibitory activity assay: Heparin Anti-FIIa kit was used for detection. To a 96-well plate, 30 μL of sample, control solution or Tris-HCl buffer (negative control) was added, and then 30 μL of 1 IU/mL AT solution was added, mixed well by shaking the plate and incubated at 37° C. for 2 min; 30 μL of 24 IU/mL FIIa solution was added, mixed well by shaking the plate and incubated for 2 min at 37° C., and then 30 μL of pre-warmed 1.25 mM FIIa specific chromogenic substrate CS-01 (38) was added, mixed well by shaking the plate. The OD405 was detected by a microplate reader and the IC50 value of FIIa inhibition of each sample was calculated.
as §1, §2

For assay [2], the system named is human-controlled plasma. Kind of assay: Anticoagulant activity assay: PT clotting time. The procedure: as §3
Another assay deals with T3, intrinsic factor Xase (Homo sapiens, UniProt P00740).
T3 construct: 60 nM FIXa; purchased
Nature of the assay: Xase inhibitory activity assay. The procedure:
Xase inhibitory activity assay: Detection was performed according to kit instructions and literature methods by combining the Factor VIII and […]. Specifically, to each well of a 96-well plate, 30 μL of test solution, control solution, or Tris-HCl buffer (negative control) was added, and 30 μl of FVIII (2 IU/ml), 30 μl of R2 (60 nM FIXa, containing FIIa, PC/PS, Ca^2+) were sequentially added, mixed by shaking the plate, incubated at 37° C. for 2 min; and then 30 μL of R1 (50 nM FX, containing direct thrombin inhibitor) was added, mixed by shaking the plate, incubated at 37° C. for 1 min; and then 30 μL of R3 (FXa chromogenic substrate SXa-11, about 8.4 mM) was added. The absorbance at 405 nm (OD405) was detected with a microplate reader, continuously measuring for 7.5 min at a interval of 30 s. The Xase activity and IC50 value of Xase inhibition of the test sample were calculated based on the OD405 change value.
as §1, §2

Another assay relates to plasma. Nature of the assay: TT (thrombin time) clotting time.
The mark [3] stands for this setting: in presence of AT; read-out: Drug concentration required to inhibit 50% of coagulation factor activity (IC50, ng/mL) Xa (AT).
Setting [4] is: in presence of AT; read-out: Drug concentration required to inhibit 50% of coagulation factor activity (IC50, ng/mL) Ha (AT).
The mark [5] stands for this setting: read-out: Drug concentration required to inhibit 50% of coagulation factor activity (IC50, ng/mL) Xase (converted).

T3 sequence (P00740 47-191 limits assumed): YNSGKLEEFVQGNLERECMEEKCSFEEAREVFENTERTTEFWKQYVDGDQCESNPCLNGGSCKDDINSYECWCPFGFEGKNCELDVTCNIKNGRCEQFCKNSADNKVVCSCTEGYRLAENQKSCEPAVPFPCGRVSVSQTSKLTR
T3 sequence (P00740 227-461 limits assumed): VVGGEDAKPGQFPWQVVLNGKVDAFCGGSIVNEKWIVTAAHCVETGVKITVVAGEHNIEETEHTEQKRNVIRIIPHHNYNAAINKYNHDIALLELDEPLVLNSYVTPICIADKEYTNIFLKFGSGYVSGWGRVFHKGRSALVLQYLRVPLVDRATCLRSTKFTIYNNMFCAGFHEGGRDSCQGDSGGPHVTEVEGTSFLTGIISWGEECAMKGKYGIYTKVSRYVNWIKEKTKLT
T2 sequence (P01008 33-464): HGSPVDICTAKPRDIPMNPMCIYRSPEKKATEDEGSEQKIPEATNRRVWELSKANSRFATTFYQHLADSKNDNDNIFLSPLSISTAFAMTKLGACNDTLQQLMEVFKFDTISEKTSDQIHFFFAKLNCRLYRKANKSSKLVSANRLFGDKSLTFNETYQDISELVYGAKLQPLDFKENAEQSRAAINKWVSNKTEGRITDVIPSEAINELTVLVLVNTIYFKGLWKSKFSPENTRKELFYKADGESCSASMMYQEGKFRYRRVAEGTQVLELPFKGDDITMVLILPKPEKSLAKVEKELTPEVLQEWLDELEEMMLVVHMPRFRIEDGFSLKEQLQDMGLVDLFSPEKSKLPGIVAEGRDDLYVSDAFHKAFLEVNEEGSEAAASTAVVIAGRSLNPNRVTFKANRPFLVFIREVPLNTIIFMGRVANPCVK
T1 sequence (P01008 33-464): as above

On to `CC(=O)NC(CO)C(OC1OC(C(=O)O)C(OC2OC(COS(=O)(=O)O)C(OS(=O)(=O)O)C(OC3OC(C(=O)O)C(OC4OC(COS(=O)(=O)O)C(OS(=O)(=O)O)C(OC5OC(C(=O)O)C(OC6OC(COS(=O)(=O)O)C(OS(=O)(=O)O)C(OC7OC(C(=O)O)C(OC8OC(COS(=O)(=O)O)C(OS(=O)(=O)O)C(OC9OC(C(=O)O)C(OC%10OC(COS(=O)(=O)O)C(OS(=O)(=O)O)C(OC%11OC(C(=O)O)=CC(OC%12OC(C)C(OS(=O)(=O)O)C(O)C%12OS(=O)(=O)O)C%11O)C%10NC(C)=O)C(OC%10OC(C)C(OS(=O)(=O)O)C(O)C%10OS(=O)(=O)O)C9O)C8NC(C)=O)C(OC8OC(C)C(OS(=O)(=O)O)C(O)C8OS(=O)(=O)O)C7O)C6NC(C)=O)C(OC6OC(C)C(OS(=O)(=O)O)C(O)C6OS(=O)(=O)O)C5O)C4NC(C)=O)C(OC4OC(C)C(OS(=O)(=O)O)C(O)C4OS(=O)(=O)O)C3O)C2NC(C)=O)C(OC2OC(C)C(OS(=O)(=O)O)C(O)C2OS(=O)(=O)O)C1O)C(OS(=O)(=O)O)C(O)COS(=O)(=O)O` [Compound A5, L-Fuc2S4S-(α1,3)-ΔUA-(α1,3)-{D-GaNAc4S6S-(β1,4)-[L-Fuc2S4S-(α1,3)]-D-GlcA-(β1,3)}n+1-D-GalNAc4S6S-ol], for which the IC50 on FXa (Homo sapiens) (setting [3]) is more than 985 nM; at FIIa (Homo sapiens) (setting [4]) it was more than 985 nM; on intrinsic factor Xase (setting [5]), 4.65 nM. Further, in the assay on human-controlled plasma [1], the “Drug concentration required for multiplication of coagulation time (μg/mL) APTT” value (“Drug concentration required … (μg/mL) APTT” below) is 3.9 µg/mL. The “Drug concentration required for multiplication of coagulation time (μg/mL) PT” value (“Drug concentration required … (μg/mL) PT” below) in the assay on human-controlled plasma [2] is listed as “# (>128 μg/mL)”. Also, in the assay on plasma, the “Drug concentration required for multiplication of coagulation time (μg/mL) TT” value (from here on “Drug concentration required … (μg/mL) TT”) was “# (>128 μg/mL)”.
For `CC(=O)NC1C(OC2C(C(=O)O)OC(OC3C(NC(C)=O)C(OC4C(C(=O)O)OC(O)C(O)C4OC4OC(C)C(OS(=O)(=O)O)C(OS(=O)(=O)O)C4O)OC(COS(=O)(=O)O)C3OS(=O)(=O)O)C(O)C2OC2OC(C)C(OS(=O)(=O)O)C(OS(=O)(=O)O)C2O)OC(COS(=O)(=O)O)C(OS(=O)(=O)O)C1OC1OC(C(=O)O)=CC(OC2OC(C)C(OS(=O)(=O)O)C(OS(=O)(=O)O)C2O)C1O` [Compound B7, L-Fuc3S4S-(α1,3)-L-ΔUA-(α1,3)-{D-GaNAc4S6S-(β1,4)-[L-Fuc3S4S-(α1,3)]-D-GlcA-(β1,4)}˜-D-GalNAc4S6S-(β1,4)-[L-Fuc3S4S-(α1,3)]-D-GlcA], the IC50 was more than 2300 nM on FXa (Homo sapiens) (setting [3]), more than 2300 nM at FIIa (Homo sapiens) (setting [4]) and 26.8 nM at intrinsic factor Xase (setting [5]). In addition, the “Drug concentration required … (μg/mL) APTT” value with human-controlled plasma [1] came out at 7.3 µg/mL. Further, the “Drug concentration required … (μg/mL) PT” value in the assay on human-controlled plasma [2] is on record as “# (>128 μg/mL)”. Besides, in the assay on plasma, the “Drug concentration required … (μg/mL) TT” value is on record as “# (>128 μg/mL)”.
Turning to `CC(=O)NC1C(OC2C(C(=O)O)OC(OC3C(NC(C)=O)C(OC4C(C(=O)O)OC(OC5C(NC(C)=O)C(OC6C(C(=O)O)OC(OC7C(NC(C)=O)C(OC8C(C(=O)O)OC(OC9C(NC(C)=O)C(OC(C(O)C(=O)O)C(OC%10OC(C)C(OS(=O)(=O)O)C(OS(=O)(=O)O)C%10O)C(O)CO)OC(COS(=O)(=O)O)C9OS(=O)(=O)O)C(O)C8OC8OC(C)C(OS(=O)(=O)O)C(OS(=O)(=O)O)C8O)OC(COS(=O)(=O)O)C7OS(=O)(=O)O)C(O)C6OC6OC(C)C(OS(=O)(=O)O)C(OS(=O)(=O)O)C6O)OC(COS(=O)(=O)O)C5OS(=O)(=O)O)C(O)C4OC4OC(C)C(OS(=O)(=O)O)C(OS(=O)(=O)O)C4O)OC(COS(=O)(=O)O)C3OS(=O)(=O)O)C(O)C2OC2OC(C)C(OS(=O)(=O)O)C(OS(=O)(=O)O)C2O)OC(COS(=O)(=O)O)C(OS(=O)(=O)O)C1OC1OC(C(=O)O)=CC(OC2OC(C)C(OS(=O)(=O)O)C(OS(=O)(=O)O)C2O)C1O` [Compound B5, L-Fuc3S4S-(α1,3)-L-ΔUA-(α1,3)-{D-GalNAc4S6S-(β1,4)-[L-Fuc3S4S-(α1,3)]-D-GlcA-(β1,3)}˜-D-GalNAc4S6S-(β1,4)-[L-Fuc3S4S-(α1,3)]-D-GlcA-ol], the IC50 was more than 1060 nM at FXa (Homo sapiens) (read-out: Drug concentration required to inhibit 50% of coagulation factor activity (IC50, ng/mL) Xa (AT); in presence of AT); more than 1060 nM at FIIa (Homo sapiens) (read-out: Drug concentration required to inhibit 50% of coagulation factor activity (IC50, ng/mL) Ha (AT); in presence of AT); 4.2 nM on intrinsic factor Xase (read-out: Drug concentration required to inhibit 50% of coagulation factor activity (IC50, ng/mL) Xase). Also, the “Drug concentration required … (μg/mL) APTT” value with human-controlled plasma [1] came to 4.0 µg/mL. Besides, the “Drug concentration required … (μg/mL) PT” value in the assay on human-controlled plasma [2] is reported as “# (>128 μg/mL)”. Also, in the assay with plasma, the “Drug concentration required … (μg/mL) TT” value is given as “# (>128 μg/mL)”.
With `COC(=O)C1=CC(OC2OC(C)C(OS(=O)(=O)O)C(O)C2OS(=O)(=O)O)C(O)C(OC2C(NC(C)=O)C(OC3C(C(=O)OC)OC(OC4C(NC(C)=O)C(OC5C(C(=O)OC)OC(OC(C(CO)NC(C)=O)C(OS(=O)(=O)O)C(O)COS(=O)(=O)O)C(O)C5OC5OC(C)C(OS(=O)(=O)O)C(O)C5OS(=O)(=O)O)OC(COS(=O)(=O)O)C4OS(=O)(=O)O)C(O)C3OC3OC(C)C(OS(=O)(=O)O)C(O)C3OS(=O)(=O)O)OC(COS(=O)(=O)O)C2OS(=O)(=O)O)O1` [Compound A6, L-Fuc2S4S-(α1,3)-[6-Methyl-ΔUA-(α1,3)]-{D-GaNAc4S6S-(β1,4)-[L-Fuc2S4S-(α1,3)-]-D-6-Methyl-GlcA-(β1,4)}2-D-GalNAc4S6S-ol], the values for the IC50 at FXa (Homo sapiens) (setting [3]), on FIIa (Homo sapiens) (setting [4]) and on intrinsic factor Xase (setting [5]) were more than 1940 nM, more than 1940 nM and 26.5 nM, respectively. Moreover, the “Drug concentration required … (μg/mL) APTT” value in the assay with human-controlled plasma [1] was determined as 7.5 µg/mL. Also, the “Drug concentration required … (μg/mL) PT” value with human-controlled plasma [2] is listed as “# (>128 μg/mL)”. The “Drug concentration required … (μg/mL) TT” value in the assay with plasma is given as “# (>128 μg/mL)”.
`CC(=O)NC1C(OC2C(C(=O)O)OC(OC3C(NC(C)=O)C(OC4C(C(=O)O)OC(OC5C(NC(C)=O)C(OC(C(O)C(=O)O)C(OC6OC(C)C(OS(=O)(=O)O)C(OS(=O)(=O)O)C6O)C(O)CO)OC(COS(=O)(=O)O)C5OS(=O)(=O)O)C(O)C4OC4OC(C)C(OS(=O)(=O)O)C(OS(=O)(=O)O)C4O)OC(COS(=O)(=O)O)C3OS(=O)(=O)O)C(O)C2OC2OC(C)C(OS(=O)(=O)O)C(OS(=O)(=O)O)C2O)OC(COS(=O)(=O)O)C(OS(=O)(=O)O)C1OC1OC(C(=O)O)=CC(OC2OC(C)C(OS(=O)(=O)O)C(OS(=O)(=O)O)C2O)C1O` [Compound B3, L-Fuc3S4S-(α1,3)-L-ΔUA-(α1,3)-{D-GalNAc4S6S-(β1,4)-[L-Fuc3S4S-(α1,3)]-D-GlcA-(β1,3)}˜-D-GalNAc4S6S-(β1,4)-[L-Fuc3S4S-(α1,3)]-D-GlcA-ol]: the IC50 at FXa (Homo sapiens) (setting [3]) was more than 1650 nM; on FIIa (Homo sapiens) (setting [4]), more than 1650 nM; on intrinsic factor Xase (setting [5]), 10.3 nM. Moreover, in the assay on human-controlled plasma [1], the “Drug concentration required … (μg/mL) APTT” value is 6.1 µg/mL. The “Drug concentration required … (μg/mL) PT” value in the assay with human-controlled plasma [2] is recorded as “# (>128 μg/mL)”. Moreover, the “Drug concentration required … (μg/mL) TT” value in the assay with plasma is given as “# (>128 μg/mL)”.
